Measurements as given in ChEMBL document CHEMBL1201862, “PubChem BioAssay data set” (2004).
Values belong to the compound of their own block, whether it stands above or below them. Calls of active or inactive are those of the source.

Assays:
CAAX prenyl protease 1 = CAAX prenyl protease 1 (Saccharomyces cerevisiae S288c, UniProt P47154); test: Ste24 protease inhibitors, dose response, biochemical, S. cerevisiae, plate reader, cherry-pick (AID 488815)
[1] = target: T1, Calpain-2 catalytic subunit (Sus scrofa, UniProt P43367); test: pig calpain II inhibitor potency, dose response, biochemical, fluorogenic peptide substrate (AID 1420); assay type: functional
T1 sequence (P43367 whole entry): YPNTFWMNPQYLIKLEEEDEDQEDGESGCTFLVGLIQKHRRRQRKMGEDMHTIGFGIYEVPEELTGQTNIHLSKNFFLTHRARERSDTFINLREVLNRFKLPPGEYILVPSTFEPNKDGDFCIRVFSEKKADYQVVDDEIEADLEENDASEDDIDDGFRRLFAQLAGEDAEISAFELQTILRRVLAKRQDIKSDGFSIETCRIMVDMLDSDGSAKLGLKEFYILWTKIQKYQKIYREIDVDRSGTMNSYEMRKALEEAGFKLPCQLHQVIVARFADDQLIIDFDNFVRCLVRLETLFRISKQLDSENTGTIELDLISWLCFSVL

[2] = HEp-2 cell cytotoxicity, dose response, cytotoxicity control for RSV inhibitor project, HTS (AID 2410); assay type: functional; settings: human respiratory syncytial virus
Large T antigen = Large T antigen (Simian virus 40, UniProt P03070); assay type: functional, Betapolyomavirus macacae;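 further: Confirmatory-stage PubChem screen for compounds that inhibit SV40 T antigen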
[3] = target: T2, RNA-binding protein pos-1 (Caenorhabditis elegans, UniProt G5EF15); test: inhibitors of POS-1/mex-3 RNA binding, dose response, biochemical, fluorescence polarization (AID 1964);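 further: purified POS-1 fused to maltose binding protein made in E. coli; potency of compounds blocking POS-1 binding to fluorescent RNA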
T2 sequence (G5EF15 whole entry): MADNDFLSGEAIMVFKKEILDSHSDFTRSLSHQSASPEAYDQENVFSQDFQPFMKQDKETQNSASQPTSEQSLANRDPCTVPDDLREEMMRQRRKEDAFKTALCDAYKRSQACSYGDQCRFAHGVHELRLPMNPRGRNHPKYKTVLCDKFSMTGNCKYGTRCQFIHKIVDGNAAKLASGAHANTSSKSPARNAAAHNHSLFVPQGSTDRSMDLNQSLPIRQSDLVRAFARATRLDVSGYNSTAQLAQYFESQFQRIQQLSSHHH

[4] = target: T3, Alkaline phosphatase, tissue-nonspecific isozyme (Homo sapiens, UniProt P05186); test: TNAP enzyme inhibition by screening hits, dose response, selectivity assay for mouse IAP inhibitor project, biochemical, human TNAP, uHTS hits (AID 488906); assay type: functional
T3 sequence (P05186 whole entry): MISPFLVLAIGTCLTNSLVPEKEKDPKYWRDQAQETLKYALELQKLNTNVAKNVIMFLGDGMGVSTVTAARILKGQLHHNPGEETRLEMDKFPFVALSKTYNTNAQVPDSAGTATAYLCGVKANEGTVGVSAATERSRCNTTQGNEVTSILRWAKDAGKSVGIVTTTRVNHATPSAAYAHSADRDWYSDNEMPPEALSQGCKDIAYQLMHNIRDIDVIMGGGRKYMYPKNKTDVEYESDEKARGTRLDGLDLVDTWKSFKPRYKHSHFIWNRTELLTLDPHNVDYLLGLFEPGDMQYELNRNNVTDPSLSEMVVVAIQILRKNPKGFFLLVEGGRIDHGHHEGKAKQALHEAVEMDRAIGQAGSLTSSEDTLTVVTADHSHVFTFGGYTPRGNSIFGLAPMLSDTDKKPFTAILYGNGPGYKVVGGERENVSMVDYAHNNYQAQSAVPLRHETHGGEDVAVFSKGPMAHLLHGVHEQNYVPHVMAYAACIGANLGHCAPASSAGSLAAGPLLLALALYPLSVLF

[5] = target: Intestinal-type alkaline phosphatase (Homo sapiens, UniProt P09923); test: inhibition of human intestinal alkaline phosphatase – biochemical, dose response (AID 488876); assay type: functional
[6] = target: Intestinal-type alkaline phosphatase (Mus musculus, UniProt P24822); test: PubChem AID 488785; assay type: functional
[7] = target: T4, Zinc finger protein mex-5 (Caenorhabditis elegans, UniProt Q9XUB2); test: MEX-5/TCR-2 RNA interaction inhibitors, dose response, biochemical, C. elegans, fluorescence polarization (AID 1960)
T4 sequence (Q9XUB2 whole entry): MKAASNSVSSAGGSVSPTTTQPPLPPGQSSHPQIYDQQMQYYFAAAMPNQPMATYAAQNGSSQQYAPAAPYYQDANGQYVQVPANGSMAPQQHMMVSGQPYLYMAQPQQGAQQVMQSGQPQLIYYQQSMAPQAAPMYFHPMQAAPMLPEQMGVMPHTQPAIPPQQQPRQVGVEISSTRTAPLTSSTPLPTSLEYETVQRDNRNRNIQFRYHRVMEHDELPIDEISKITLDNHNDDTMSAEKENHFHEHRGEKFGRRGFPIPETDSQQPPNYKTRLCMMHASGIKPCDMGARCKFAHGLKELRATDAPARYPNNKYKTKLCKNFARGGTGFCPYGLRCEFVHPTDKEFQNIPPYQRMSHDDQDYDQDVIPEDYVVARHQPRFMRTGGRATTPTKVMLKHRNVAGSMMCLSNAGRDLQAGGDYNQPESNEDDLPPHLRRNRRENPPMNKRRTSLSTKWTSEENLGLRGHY

[8] = target: T5, Nucleotide-binding oligomerization domain-containing protein 2 (Homo sapiens, UniProt Q9HC29); test: NOD2 inhibitors, SAR follow-up, set 2 (AID 2475); assay type: functional
Tumor necrosis factor = Tumor necrosis factor (Homo sapiens, UniProt P01375); test: TNFa-triggered NF-kB activation inhibitors, SAR follow-up, cell-based, set 3 (AID 2801); assay type: functional
[9] = target: T6, Nucleotide-binding oligomerization domain-containing protein 1 (Homo sapiens, UniProt Q9Y239); test: SAR analysis of compounds that inhibit NOD1 - Set 3. [Related pubchem assays (depositor defined):AID1566, AID1575, AID1578, AID1849, AID1852, AID2333, AID2335, AID2466]; assay type: functional
T6 sequence (Q9Y239 whole entry): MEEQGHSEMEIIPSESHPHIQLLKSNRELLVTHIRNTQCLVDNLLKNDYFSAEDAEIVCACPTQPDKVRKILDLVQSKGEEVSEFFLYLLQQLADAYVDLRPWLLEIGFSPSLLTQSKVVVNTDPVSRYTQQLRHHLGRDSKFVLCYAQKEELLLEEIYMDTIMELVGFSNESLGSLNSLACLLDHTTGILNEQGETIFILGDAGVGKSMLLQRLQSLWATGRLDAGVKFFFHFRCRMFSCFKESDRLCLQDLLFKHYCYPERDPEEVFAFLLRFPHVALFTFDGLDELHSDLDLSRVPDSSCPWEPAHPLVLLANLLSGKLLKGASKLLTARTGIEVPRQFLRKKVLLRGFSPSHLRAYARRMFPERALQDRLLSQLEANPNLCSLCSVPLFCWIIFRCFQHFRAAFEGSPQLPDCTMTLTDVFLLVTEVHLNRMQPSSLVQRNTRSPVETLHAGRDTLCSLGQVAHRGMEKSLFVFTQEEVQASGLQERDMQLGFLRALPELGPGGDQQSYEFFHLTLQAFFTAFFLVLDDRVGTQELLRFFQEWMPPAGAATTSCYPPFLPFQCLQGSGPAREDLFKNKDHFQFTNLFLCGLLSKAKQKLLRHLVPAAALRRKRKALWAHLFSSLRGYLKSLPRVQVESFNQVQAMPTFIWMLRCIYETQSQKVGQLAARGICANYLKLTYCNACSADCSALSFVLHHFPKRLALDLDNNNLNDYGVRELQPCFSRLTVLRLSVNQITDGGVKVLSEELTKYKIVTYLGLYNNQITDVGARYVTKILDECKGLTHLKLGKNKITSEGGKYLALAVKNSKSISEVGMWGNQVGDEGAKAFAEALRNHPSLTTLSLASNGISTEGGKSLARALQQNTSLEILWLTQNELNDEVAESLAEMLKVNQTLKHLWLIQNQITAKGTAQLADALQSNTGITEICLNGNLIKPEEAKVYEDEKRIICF

HEK293 [10] = test: SAR analysis of compounds that are cytotoxic to HEK293 - Set 2. [Related pubchem assays (depositor defined):AID1575, AID1578, AID1849, AID2001, AID2333, AID2334, AID2335, AID2337, AID2800]; assay type: functional, cell-based; settings: Homo sapiens
Interleukin-8 [11] = target: T7, Interleukin-8 (Homo sapiens, UniProt P10145); test: SAR analysis of GM-Tri-DAP induced IL-8 secretion in MCF-7/NOD1 cells - Set 2. [Related pubchem assays (depositor defined):AID1575, AID1578, AID2333]; assay type: functional, cell-based
T7 sequence (P10145 whole entry): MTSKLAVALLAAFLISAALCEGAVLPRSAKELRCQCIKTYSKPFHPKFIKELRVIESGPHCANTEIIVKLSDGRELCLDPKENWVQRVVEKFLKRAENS

[12] = target: T5, Nucleotide-binding oligomerization domain-containing protein 2; test: NOD2 signaling inhibitors, analog potency, SAR follow-up, cell-based, set 3 (AID 2799); assay type: functional
HEK293 [13] = test: SAR analysis of compounds that are cytotoxic to HEK293 - Set 3. [Related pubchem assays (depositor defined):AID1575, AID1578, AID1848, AID1849, AID2001, AID2333, AID2334, AID2335, AID2337, AID2469]; assay type: functional, cell-based; settings: Homo sapiens
Interleukin-8 [14] = target: T7, Interleukin-8; test: SAR analysis of Tumor necrosis factor alpha (TNF-alpha) induced IL-8 secretion in MCF-7/NOD1 cells - Set 2. [Related pubchem assays (depositor defined):AID1575, AID2250, AID2260]; assay type: functional, cell-based
[15] = target: T6, Nucleotide-binding oligomerization domain-containing protein 1; test: SAR analysis of NF-kappaB dependent luciferase using DAP as an inducer - Set 2. [Related pubchem assays (depositor defined):AID1566, AID1575, AID1578, AID1579, AID1849, AID1852, AID2264]; assay type: functional
[16] = target: T6, Nucleotide-binding oligomerization domain-containing protein 1; test: SAR analysis of compounds that inhibit NOD1 - Set 2. [Related pubchem assays (depositor defined):AID1566, AID1575, AID1578, AID1849, AID1852, AID2333, AID2335, AID2798]; assay type: functional
[17] = target: T8, Delta-type opioid receptor (Homo sapiens, UniProt P41143); test: DOR antagonists, SAR follow-up, image-based (AID 2357); assay type: functional
Mu-type opioid receptor [18] = target: T9, Mu-type opioid receptor (Homo sapiens, UniProt P35372); test: MOR agonists by imaging, SAR follow-up, image-based (AID 2352); assay type: functional
[19] = target: T10, Kappa-type opioid receptor (Homo sapiens, UniProt P41145); test: SAR analysis of small molecule agonists of the kappa opioid receptor via a luminescent beta-arrestin assay. [Related pubchem assays (depositor defined):AID1777, AID1786, AID1966, AID2133, AID2136, AID2348, AID2352, AID2357, AID2359, AID2370, AID2420, AID2478, AID2491, AID2492, AID2493, AID2497, AID2498, AID2500, AID449737, AID488822, AID488842]; assay type: functional
[20] = target: T8, Delta-type opioid receptor; test: DOR agonists, SAR follow-up, image-based (AID 2370); assay type: functional
[21] = target: T10, Kappa-type opioid receptor; test: KOR agonist analogs, imaging readout, SAR follow-up, image-based (AID 2359); assay type: functional
Mu-type opioid receptor [22] = target: T9, Mu-type opioid receptor; test: MOR antagonists, SAR follow-up, image-based (AID 2420); assay type: functional;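 further: compounds added before stimulation of receptor with agonist DAMGO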
[23] = target: T10, Kappa-type opioid receptor; test: KOR antagonists by imaging, SAR follow-up, image-based (AID 2348); assay type: functional
[24] = target: T11, Mannose-6-phosphate isomerase (Homo sapiens, UniProt P34949); test: PMI enzyme inhibitors, confirmation, biochemical, fluorescence intensity (AID 1535)
T11 sequence (P34949 whole entry): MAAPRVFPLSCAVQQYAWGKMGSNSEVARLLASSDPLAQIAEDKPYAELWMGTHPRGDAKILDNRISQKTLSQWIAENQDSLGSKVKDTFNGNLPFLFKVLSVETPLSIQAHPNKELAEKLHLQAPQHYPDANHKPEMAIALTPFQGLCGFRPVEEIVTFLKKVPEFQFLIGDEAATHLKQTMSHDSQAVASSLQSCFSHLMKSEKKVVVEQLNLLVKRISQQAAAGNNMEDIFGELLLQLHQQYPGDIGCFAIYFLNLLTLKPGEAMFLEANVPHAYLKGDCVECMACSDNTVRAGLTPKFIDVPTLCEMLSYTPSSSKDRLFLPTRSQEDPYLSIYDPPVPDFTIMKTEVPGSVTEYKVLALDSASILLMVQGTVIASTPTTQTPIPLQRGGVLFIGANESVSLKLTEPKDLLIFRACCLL

Phosphomannomutase 2 = Phosphomannomutase 2 (Homo sapiens, UniProt O15305); test: Counter screen SAR assay for PMM2 inhibitors via a fluorescence intensity assay. [Related pubchem assays (depositor defined):AID1545, AID1574]
Chain of Phosphomannomutase 2 (O15305 whole entry): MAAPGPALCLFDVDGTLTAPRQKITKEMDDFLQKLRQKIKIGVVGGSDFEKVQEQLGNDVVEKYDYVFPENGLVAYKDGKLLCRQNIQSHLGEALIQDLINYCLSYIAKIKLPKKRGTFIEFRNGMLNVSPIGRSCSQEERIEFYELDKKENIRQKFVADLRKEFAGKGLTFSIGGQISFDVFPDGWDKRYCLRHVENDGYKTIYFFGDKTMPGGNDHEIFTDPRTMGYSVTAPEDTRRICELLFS

T10 sequence (P41145 whole entry): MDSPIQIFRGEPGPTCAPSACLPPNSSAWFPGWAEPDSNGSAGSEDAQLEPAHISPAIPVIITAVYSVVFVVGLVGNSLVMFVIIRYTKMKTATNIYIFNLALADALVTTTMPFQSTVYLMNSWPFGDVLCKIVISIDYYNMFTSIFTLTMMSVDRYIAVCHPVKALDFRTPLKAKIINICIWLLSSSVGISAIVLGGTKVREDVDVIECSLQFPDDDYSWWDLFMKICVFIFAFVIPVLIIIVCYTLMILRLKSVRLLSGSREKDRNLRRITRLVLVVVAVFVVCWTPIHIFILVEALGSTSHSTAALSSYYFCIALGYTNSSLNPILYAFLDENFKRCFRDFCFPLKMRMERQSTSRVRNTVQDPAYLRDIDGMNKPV
T8 sequence (P41143 whole entry): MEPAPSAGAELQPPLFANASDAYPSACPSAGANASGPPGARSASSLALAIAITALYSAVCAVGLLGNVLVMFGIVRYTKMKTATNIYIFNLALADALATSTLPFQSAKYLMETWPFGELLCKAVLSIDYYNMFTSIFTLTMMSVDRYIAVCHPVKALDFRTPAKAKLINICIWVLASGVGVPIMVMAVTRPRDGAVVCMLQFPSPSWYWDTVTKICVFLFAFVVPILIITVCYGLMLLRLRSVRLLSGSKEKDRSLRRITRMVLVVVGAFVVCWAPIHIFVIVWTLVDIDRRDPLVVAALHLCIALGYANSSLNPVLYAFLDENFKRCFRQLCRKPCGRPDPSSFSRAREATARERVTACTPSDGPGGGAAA
T5 sequence (Q9HC29 whole entry, the tested form may be a part): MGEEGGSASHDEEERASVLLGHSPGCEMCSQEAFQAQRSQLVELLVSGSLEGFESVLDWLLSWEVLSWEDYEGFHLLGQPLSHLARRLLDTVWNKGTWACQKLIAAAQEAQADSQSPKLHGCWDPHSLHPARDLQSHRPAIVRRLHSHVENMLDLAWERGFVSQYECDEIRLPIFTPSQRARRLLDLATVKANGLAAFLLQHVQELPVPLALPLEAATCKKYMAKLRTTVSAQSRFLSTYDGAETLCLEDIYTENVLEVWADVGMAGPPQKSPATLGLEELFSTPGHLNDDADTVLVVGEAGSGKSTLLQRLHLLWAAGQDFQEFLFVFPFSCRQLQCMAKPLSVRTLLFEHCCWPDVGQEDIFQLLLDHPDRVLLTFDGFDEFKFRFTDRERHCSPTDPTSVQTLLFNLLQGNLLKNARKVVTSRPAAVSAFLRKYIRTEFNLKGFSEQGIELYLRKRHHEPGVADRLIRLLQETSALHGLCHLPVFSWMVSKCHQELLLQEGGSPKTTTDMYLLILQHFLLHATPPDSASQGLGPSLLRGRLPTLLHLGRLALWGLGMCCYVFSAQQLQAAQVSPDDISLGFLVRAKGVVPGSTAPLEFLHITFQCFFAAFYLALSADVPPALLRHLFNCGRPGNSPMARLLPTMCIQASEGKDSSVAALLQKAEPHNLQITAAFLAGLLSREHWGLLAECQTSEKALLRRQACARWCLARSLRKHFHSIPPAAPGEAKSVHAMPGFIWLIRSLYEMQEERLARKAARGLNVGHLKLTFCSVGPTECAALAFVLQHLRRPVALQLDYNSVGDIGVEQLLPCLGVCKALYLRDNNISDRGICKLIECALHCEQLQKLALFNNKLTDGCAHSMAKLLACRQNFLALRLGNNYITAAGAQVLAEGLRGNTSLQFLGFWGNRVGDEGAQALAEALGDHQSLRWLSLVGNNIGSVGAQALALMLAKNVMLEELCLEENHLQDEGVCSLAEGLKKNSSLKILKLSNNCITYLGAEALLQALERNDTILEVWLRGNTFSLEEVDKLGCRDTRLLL
T9 sequence (P35372 whole entry): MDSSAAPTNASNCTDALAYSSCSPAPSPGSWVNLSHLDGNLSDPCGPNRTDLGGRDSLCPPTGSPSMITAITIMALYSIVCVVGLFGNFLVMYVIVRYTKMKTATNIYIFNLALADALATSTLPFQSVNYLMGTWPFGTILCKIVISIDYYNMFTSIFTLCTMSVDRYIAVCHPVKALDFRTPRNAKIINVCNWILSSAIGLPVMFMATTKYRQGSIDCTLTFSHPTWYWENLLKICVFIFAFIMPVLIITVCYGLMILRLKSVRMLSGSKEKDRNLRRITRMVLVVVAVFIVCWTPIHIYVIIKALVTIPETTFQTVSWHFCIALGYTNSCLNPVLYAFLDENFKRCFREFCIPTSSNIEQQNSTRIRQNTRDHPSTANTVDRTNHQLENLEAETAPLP
Chain of Large T antigen (P03070 whole entry, the tested form may be a part): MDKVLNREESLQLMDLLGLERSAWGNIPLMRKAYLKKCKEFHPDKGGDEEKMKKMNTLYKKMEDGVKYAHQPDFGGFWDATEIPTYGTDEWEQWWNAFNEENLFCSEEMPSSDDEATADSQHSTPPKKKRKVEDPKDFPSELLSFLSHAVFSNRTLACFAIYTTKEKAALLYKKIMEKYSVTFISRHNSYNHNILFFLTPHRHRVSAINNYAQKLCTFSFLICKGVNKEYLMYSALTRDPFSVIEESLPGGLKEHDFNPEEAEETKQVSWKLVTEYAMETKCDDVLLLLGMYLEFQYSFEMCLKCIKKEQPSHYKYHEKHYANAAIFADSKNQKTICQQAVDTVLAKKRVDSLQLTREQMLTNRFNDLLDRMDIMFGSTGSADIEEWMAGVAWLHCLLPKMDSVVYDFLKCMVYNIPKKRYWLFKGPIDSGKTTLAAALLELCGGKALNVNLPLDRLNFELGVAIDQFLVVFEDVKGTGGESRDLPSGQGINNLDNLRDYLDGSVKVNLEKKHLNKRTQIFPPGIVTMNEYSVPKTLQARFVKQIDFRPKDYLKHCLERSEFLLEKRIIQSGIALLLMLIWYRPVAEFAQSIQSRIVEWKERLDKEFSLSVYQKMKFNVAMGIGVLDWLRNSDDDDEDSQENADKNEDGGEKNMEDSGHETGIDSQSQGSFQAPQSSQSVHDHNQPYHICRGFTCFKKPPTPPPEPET
Chain of Tumor necrosis factor (P01375 whole entry, the tested form may be a part): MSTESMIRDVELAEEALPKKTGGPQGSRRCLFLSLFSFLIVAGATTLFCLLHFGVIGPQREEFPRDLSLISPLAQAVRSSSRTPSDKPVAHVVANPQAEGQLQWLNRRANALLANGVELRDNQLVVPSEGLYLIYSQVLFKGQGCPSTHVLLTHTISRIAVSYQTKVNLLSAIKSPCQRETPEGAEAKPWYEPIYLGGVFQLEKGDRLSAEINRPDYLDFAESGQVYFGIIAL
Chain of CAAX prenyl protease 1 (P47154 whole entry): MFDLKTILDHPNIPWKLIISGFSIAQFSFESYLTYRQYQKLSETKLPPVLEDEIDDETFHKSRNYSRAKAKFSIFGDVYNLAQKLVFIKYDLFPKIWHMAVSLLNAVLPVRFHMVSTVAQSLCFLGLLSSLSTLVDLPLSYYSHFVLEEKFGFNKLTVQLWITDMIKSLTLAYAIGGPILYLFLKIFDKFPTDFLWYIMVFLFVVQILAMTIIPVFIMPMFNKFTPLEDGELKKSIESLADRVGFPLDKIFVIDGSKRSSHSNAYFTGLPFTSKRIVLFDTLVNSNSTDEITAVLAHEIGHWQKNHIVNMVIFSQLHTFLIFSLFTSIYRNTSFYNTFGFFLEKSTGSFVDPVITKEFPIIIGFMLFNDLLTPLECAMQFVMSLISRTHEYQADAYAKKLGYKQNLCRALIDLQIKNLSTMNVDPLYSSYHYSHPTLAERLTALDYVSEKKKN
Chain of Intestinal-type alkaline phosphatase (Mus musculus, UniProt P24822) (P24822 whole entry): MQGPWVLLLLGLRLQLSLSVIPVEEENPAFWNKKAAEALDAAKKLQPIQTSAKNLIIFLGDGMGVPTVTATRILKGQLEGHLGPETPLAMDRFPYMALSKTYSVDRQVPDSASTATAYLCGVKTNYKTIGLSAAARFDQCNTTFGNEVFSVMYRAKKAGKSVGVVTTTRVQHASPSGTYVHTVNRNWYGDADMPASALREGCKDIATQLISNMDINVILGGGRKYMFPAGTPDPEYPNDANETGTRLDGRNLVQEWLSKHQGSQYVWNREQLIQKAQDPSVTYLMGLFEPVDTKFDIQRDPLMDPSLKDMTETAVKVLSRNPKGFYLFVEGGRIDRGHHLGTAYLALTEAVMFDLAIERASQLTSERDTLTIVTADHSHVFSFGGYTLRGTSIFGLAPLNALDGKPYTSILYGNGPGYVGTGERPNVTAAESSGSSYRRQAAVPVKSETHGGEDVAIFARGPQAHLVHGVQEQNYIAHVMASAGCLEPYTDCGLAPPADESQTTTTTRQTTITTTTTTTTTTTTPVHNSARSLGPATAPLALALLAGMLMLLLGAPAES
Chain of Intestinal-type alkaline phosphatase (Homo sapiens, UniProt P09923) (P09923 whole entry): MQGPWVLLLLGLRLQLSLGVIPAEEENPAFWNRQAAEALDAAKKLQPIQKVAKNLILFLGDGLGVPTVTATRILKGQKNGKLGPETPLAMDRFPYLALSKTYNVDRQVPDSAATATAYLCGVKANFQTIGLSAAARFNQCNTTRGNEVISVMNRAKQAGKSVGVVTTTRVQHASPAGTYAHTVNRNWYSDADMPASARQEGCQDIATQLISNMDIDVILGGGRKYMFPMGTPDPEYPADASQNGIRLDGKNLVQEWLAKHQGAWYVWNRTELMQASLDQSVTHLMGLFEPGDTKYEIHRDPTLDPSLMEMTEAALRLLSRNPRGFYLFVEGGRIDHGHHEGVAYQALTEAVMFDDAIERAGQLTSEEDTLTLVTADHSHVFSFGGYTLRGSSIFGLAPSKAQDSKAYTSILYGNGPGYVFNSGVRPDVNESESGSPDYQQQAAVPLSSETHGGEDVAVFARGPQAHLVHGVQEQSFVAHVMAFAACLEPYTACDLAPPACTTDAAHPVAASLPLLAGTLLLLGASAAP

AC50 (CAAX prenyl protease 1): > 100 µM (inactive)
IC50 [1]: 9.54 µM (active)
Compound: Cc1ccc(Nc2nc(-c3ccc(S(=O)(=O)N4CCOCC4)cc3)cs2)cc1Cl
CC50 [2]: 4.91 µM (active)

IC50 (Large T antigen): 39.6 µM (active)
EC50 [3]: > 300 µM (not active)
IC50 [4]: > 100 µM (inactive)
IC50 [5]: > 100 µM (inactive)
IC50 [6]: 6 µM (active)
EC50 [7]: 26.8 µM (active)
Compound: O=C1CNC(=S)N1CCc1ccc(O)c(O)c1

Compound: CCCn1c(SCCc2ccccc2)nc2c1c(=O)[nH]c(=O)n2C
IC50 [8]: > 20 µM (inactive)
IC50 (Tumor necrosis factor): > 20 µM (inactive)
IC50 [9]: > 20 µM (inactive)
IC50 (HEK293 [10]): > 20 µM (inactive)
IC50 (Interleukin-8 [11]): > 25 µM (inactive)
IC50 [12]: > 20 µM (inactive)
IC50 (HEK293 [13]): > 20 µM (inactive)
IC50 (Interleukin-8 [14]): > 25 µM (inactive)
IC50 [15]: > 25 µM (inactive)
IC50 [16]: > 20 µM (inactive)

IC50 [17]: > 32 µM (inactive)
EC50 (Mu-type opioid receptor [18]): > 32 µM (inactive)
EC50 [19]: > 10 µM (inactive)
EC50 [20]: > 32 µM (inactive)
EC50 [21]: 18.1 µM (inactive)
IC50 (Mu-type opioid receptor [22]): > 32 µM (inactive)
IC50 [23]: > 32 µM (inactive)
Compound: O=C(c1ccccn1)N(Cc1cc2ccccc2[nH]c1=O)C1CCCCC1

IC50 [24]: 49.9 µM (active)
IC50 (Phosphomannomutase 2): > 100 µM (inactive)
Compound: COc1ccc(C)c(/N=c2\ssnc2Cl)c1
